Test results taken from patent US20230017266A1, “Cyclooxygenase-2 Inhibition for the Treatment of SAA-high Asthma” (THE USA, AS REPRESENTED BY THE SECRETARY, DEPT. OF HEALTH …, priority 2019, published 2023).

Legend:
CD14^+ monocytes = assay: HDL+SAA1-induced cytokine secretion by ex vivo CD14+ monocytes (ELISA); assay type: cell-based, human; conditions: for HDL+SAA1-mediated increases in cytokine secretion: 24 h
Method: Isolation of Peripheral Blood Monocytes. Peripheral blood monocytes were isolated using a two-step process. Peripheral blood was diluted with PBS at a 1:1 ratio, slowly overlaid onto 30 ml of Lymphoprep™ (catalog #07811, StemCell Technologies, Vancouver Canada) in a 50 ml conical tube, and centrifuged at 400×g for 25 min without braking. The peripheral blood mononuclear cell (PBMC) layer was carefully transferred to another 50 ml conical tube, washed with PBS, followed by two washes with FACS buffer (0.5 mM EDTA, 1% BSA, and 1% mouse serum in PBS). Monocytes subsets were identified and sorted by flow cytometry using the following antibodies: PE mouse anti-human CD45 clone HI30 (catalog #555483), BV421 mouse anti-human CD14 clone MφP9 (catalog #563743), and FITC mouse anti-human CD16 clone B73.1 (catalog #561308), and a FACS ARIA Fusion sorter equipped with 355, 407, 488, 532 and 640 nm LASER lines using FACS DIVA 8.0 software (all from BD Biosciences, San Jose, Calif.). The gating strategy identified a population of debris-free, single, live, ^SSCmoderate/high, CD45^+ cells from which CD14^+/CD16^− (classical), CD14^+/CD16^+ (intermediate), CD14^dim/CD16^+ (non-classical), and CD14^+ (classical and intermediate) cells were sorted and utilized for experiments, as indicated (Supplemental FIG. 4).
HDL+SAA1 Stimulation of Peripheral Blood Monocytes Subsets. […] As previously described, normal HDL was isolated from plasma obtained from healthy subjects by sequential KBr differential gradient ultracentrifugation at 330,000 g and extensive dialysis with 50 mM HEPES, 50 mM NaCL, 5 mM MgCl2 and 2 mM CaCl2, pH 7.0, at 4° C. Normal HDL was complexed with recombinant human serum amyloid A-1 at a 2:1 ratio by mixing and incubated at RT overnight to generate HDL+SAA1, which was filtered using a 100-kDa exclusion filter (Amicon Ultra Centrifuge Filters, Millipore, Darmstadt, Germany) to remove any uncomplexed SAA1. Normal HDL was also complexed with the amount of lipopolysaccharide (catalog # L4391, E. coli 0111:B4, y-irradiated, MilliporeSigma, St. Louis, Mo.) present in recombinant human SAA1. Additionally, classical CD14^+ monocytes were treated with the P2X7R antagonist, A438079, the IKK inhibitor, BAY-11-7082, the IKKβ (IKK-2) inhibitor, TPCA-1, or the selective COX-2 inhibitor, celexocib, all from MilliporeSigma(St. Louis, Mo.). Cells were also treated with the FPR2 antagonist, WRW4, or diclofenac from Tocris (Minneapolis, Minn.). The amount of IL-1β, IL-6, TNF-α and IL-10 secreted into cell culture supernatants was quantified using human DuoSet ELISA kits (R&D Systems) and data were acquired using a SpectraMax M2 spectrophotometer (Molecular Devices, San Jose, Calif.). Western blotting, as previously described^43, was performed using antibodies directed against COX-1 (catalog #160110) and COX-2 (catalog #160112), both from Cayman Chemical (Ann Arbor, Mich.). Equivalency of protein loading was established using an antibody directed against GAPDH (catalog #MAB5718) from R&D Systems (Minneapolis, Minn.). Western blots images were captured using an iBright FL1000 Western Blot Imaging System (ThermoFisher Scientific, Waltham, Mass.) and quantified using NIH ImageJ software (imagej.nih.gov). […]

THP-1 monocytes = assay: Cytokine secretion by THP-1 monocytes stimulated with endogenous SAA-high HDL; assay type: cell-based, human; conditions: pre-treated 1 h; for ability of endogenous SAA-high HDL to induce cytokine secretion: SAA-high HDL 24 h
Method: HDL Isolation and Analysis. HDL was isolated from plasma by size-exclusion chromatography using two Superose 6 columns in series on an Akta FPLC system (GE Healthcare Life Sciences, Pittsburgh, Pa.), as previously described. FPLC fractions were assayed for cholesterol content (Cholesterol E, catalog #996021611, FUJIFILM Wako Diagnostics USA, Mountain View, Calif.) to identify HDL fractions, which were pooled and concentrated using a 10-kDa exclusion filter (Amicon Ultra Centrifuge Filters, Millipore, Darmstadt, Germany). The content of SAA in purified HDL was quantified using the human SAA ELISA kit, while APOA1 was quantified using the human APOA1 ELISA development kit (Mabtech, Nacka Strand, Sweden). THP-1 monocytes (American Type Culture Collection, Manassas, Va.) were treated with HDL from SAA-high asthmatics (n=16), as well as HDL from asthmatics with the lowest SAA levels (n=16), and the quantity of […], IL-6, TNF-α, and IL-10 secreted into culture medium over 24 h was assayed using Human DuoSet ELISA kits (R&D Systems, Minneapolis, Minn.) and data were acquired using a SpectraMax M2 spectrophotometer (Molecular Devices, San Jose, Calif.).
Stimulation of THP-1 monocytes with endogenous HDL from SAA-high asthmatics and suppression of cytokine secretion were further studied. HDL (4 μg of protein/ml) isolated from plasma from a SAA-high asthmatic (SAA-high HDL) and from a healthy non-asthmatic subject (Normal HDL) were used to stimulate THP-1 monocytes for 24 h. THP-1 monocytes were pre-treated with the FPR2 antagonist, WRW4 or water (40 μM) as the vehicle control, or A438079 or DMSO (10 μM) as the vehicle control, for 1 h prior to stimulation with normal or SAA-high HDL for 24 h. One-way ANOVA with Sidak's multiple comparisons test. ****P<0.0001.
HDL ([…] of protein/ml) isolated from plasma from a SAA-high asthmatic (SAA-high HDL) and from a healthy non-asthmatic subject (Normal HDL) were used to stimulate THP-1 monocytes for 24 h. THP-1 monocytes were pre-treated with BAY-11-7082 ([…] (1 μM) or DMSO (10 μM) as the vehicle control for 1 h, as indicated, prior to stimulation with normal or SAA-high HDL for 24 h. One-way ANOVA with Sidak's multiple comparisons test. ****P<0.0001.
HDL (4 μg of protein/ml) isolated from plasma from a SAA-high asthmatic (SAA-high HDL) and from a healthy non-asthmatic subject (Normal HDL) were used to stimulate THP-1 monocytes for 24 h. A. THP-1 monocytes were pre-treated with celecoxib or DMSO (0.01 μM) as the vehicle control for 1 h, as indicated, prior to stimulation with normal or SAA-high HDL for 24 h. One-way ANOVA with Sidak's multiple comparisons test. ****P<0.0001.

[1] = A438079 10 μM, pre-treated 1 h, HDL+SAA1 24 h
[2] = A438079 10 μM, SAA-high HDL 4 μg of protein/ml 24 h

## Clc1cccc(-c2nnnn2Cc2cccnc2)c1Cl [A438079]
CD14^+ monocytes; [1]
  HDL+SAA1-mediated secretion of IL-1β: significantly reduced
  HDL+SAA1-mediated secretion of IL-6: significantly reduced
  HDL+SAA1-mediated secretion of IL-10: significantly reduced
  HDL+SAA1-mediated secretion of TNF-α: significantly reduced
THP-1 monocytes; [2]
  IL-1β secretion induced by endogenous SAA-high HDL: inhibited
  IL-6 secretion induced by endogenous SAA-high HDL: inhibited
  TNF-α secretion induced by endogenous SAA-high HDL: inhibited

## Cc1ccc(S(=O)(=O)/C=C/C#N)cc1 [BAY 11-7082]
CD14^+ monocytes; BAY-11-7082 10 μM
  HDL+SAA1-mediated increases in cytokine secretion: prevented
THP-1 monocytes; BAY-11-7082 10 μM
  ability of endogenous SAA-high HDL to induce cytokine secretion: abrogate

## NC(=O)Nc1sc(-c2ccc(F)cc2)cc1C(N)=O [TPCA1]
CD14^+ monocytes; TPCA-1 1 μM
  HDL+SAA1-mediated increases in cytokine secretion: prevented
THP-1 monocytes; TPCA-1 1 μM
  ability of endogenous SAA-high HDL to induce cytokine secretion: abrogate
